# Laboratory results reported in patent publication US20110189174A1, “COMPOSITIONS AND METHODS FOR TREATING, REDUCING, AMELIORATING, ALLEVIATING, OR INHIBITING PROGRESSION OF, PATHOGENIC OCULAR NEOVASCULARIZATION” (priority 2010, published 2011).
# Tests used:
# [1] = tested on: human retinal endothelial cells (HREC); test: Testing 6: VEGF-induced HREC proliferation (MTS assay), BOL-303055-X and Avastin alone and in combination; type: cell-based; details: for Inhibition of VEGF-induced HREC proliferation, agent alone: Avastin 3-300 ng/ml (significant from 30 ng/ml)
# Description: HREC were first cultured overnight in a 96-well plate coated with fibronectin. The next day, cells were serum-starved for 2 hours. The medium containing different agents as shown in Table 12 was pre-incubated for 1 hour before being added into appropriate wells. The cells were further cultured at 37° C., 5% CO2, and 95% humidity for another 3 days. After that, cell proliferation was estimated by the MTS assay—a cell metabolic activity assay (disclosed hereinabove).
# A 96-well plate was coated with human fibronectin (10 μg/ml) for 5 h at 37° C., 5% CO2, and 95% humidity. HREC were collected from flasks by EDTA-trypsin treatment and re-suspended in 10% FBS CS-C medium at 18,000 cells/ml. Cells (200 μl/well) were added to the plate and cultured for overnight at 37° C., 5% CO2, and 95% humidity. Next day, medium was aspirated and serum-free medium was added to wells at 200 μl/well for 2 hours.
# Normal IgG was also added in such a way that all groups contained the same amount of IgG protein. All medium solutions were incubated for 1 h at 37° C., 5% CO2, and 95% humidity. After carefully aspirating the medium from cells, 200 μl of the medium containing different agents was added into appropriate wells. The cells were further cultured for 3 days.
# At the end of incubation, the medium was carefully aspirated from cells and 120 μl of MTS working solution was added into all wells. The plate was incubated at 37° C., 5% CO2, and 95% humidity for 1 hour and then read by a plate reader at 490 nm wavelength.
# Median optical density (OD) was generated from different groups. Data were expressed as mean±SEM of the OD values. Statistical analysis was performed using a three-way ANOVA followed by the contrast procedure on log-transformed data, and P<0.05 was considered statistically significant. […] All the data from the individual wells were fitted to a re-parameterized four-parameter logistic equation to obtain IC50 using similar methodology as that previously described and utilizing the statistical analysis software JMP (SAS Institute, Cary, N.C.).
# [2] = tested on: human retinal endothelial cells (HREC); test: Testing 5: VEGF-induced HREC proliferation (MTS assay), echistatin and Avastin alone and in combination; type: cell-based
# Description: HREC were first cultured overnight in a 96-well plate coated with fibronectin. The next day, cells were serum-starved for 2 h before treatment. Medium containing different agents as shown in table below was pre-incubated for 1 h before being added to cells. The cells were cultured at 37° C., 5% CO2, and 95% humidity for another 3 days. After that, cell proliferation was estimated by the MTS assay. […] Normal human IgG was also added to different groups in such a way that all groups contained the same amounts of IgG protein.
# A 96-well plate was coated with human fibronectin (10 μg/mL) for 5 hours. HREC were collected from flasks by EDTA-trypsin treatment and re-suspended in 10% FBS CS-C medium at 15,000 cells/mL. Cells (200 μL) were added to the plate and cultured overnight at 37° C., 5% CO2, and 95% humidity. Next day, the medium was removed and 200 μl/well serum free medium was added.
# All medium solutions were incubated for 1 h at 37° C. After carefully aspirating the medium from cells, […], of the medium containing the different agents was added into appropriate wells. The cells were cultured for another 3 days.
# At the end of incubation, the medium was carefully aspirated from cells and 120 μl of MTS working solution was added into all wells including blank wells (without cells). The plate was incubated at 37° C., 5% CO2, and 95% humidity for 1 hour and then absorbance was read by a plate reader at 490 nm wavelength.
# Median optical density (OD) was generated from different groups. Data were expressed as mean±SEM of the OD values. Statistical analysis was performed using a one or two-way ANOVA using Box-Cox transformed data if needed, and P<0.05 was considered statistically significant. […] All the data from the individual wells were fitted to a re-parameterized four-parameter logistic equation to obtain IC50 using similar methodology as that previously described and utilizing the statistical analysis software JMP (SAS Institute, Cary, N.C.).
# [3] = rat, in vivo
# Description: The anterior segment of the eye was examined using a slit-lamp biomicroscopy for excluding any animals with abnormalities that might interfere with the study. Fundus photography and fluorescein angiography (FA) were performed to document the health of the retina and the ocular circulation using a TRC 50EX fundus camera (Topcon). For FA, 10% sodium fluorescein was injected intravenously (50 mg/kg of body weight) through the tail vein or the vein under the incisor before the procedure.
# Immediately after placement of laser photocoagulation, the experimental eyes received an intravitreal injection of either a compound or a vehicle as described in Table 5. Following the disinfection of ocular surface with 5% betadine and 0.9% saline solutions, the injections were performed with aid of a surgical microscope using 0.3 mL syringes with a 31-gauge ½-inch long needle (Ultra-Fine II™ Insulin syringe, BD, Franklin Lakes, N.J.).
# Two weeks after photocoagulation, all rats were examined under anesthesia and pupil dilation with slit-lamp biomicroscopy, fundus photography and FA as described in the baseline examination.
# [4] = BOL-303055-X 1 nM, VEGF 10 ng/ml
Molecule,"HREC proliferation under basal conditions ([1]; 1 nM, no VEGF)",Enhancement of Avastin potency ([1]; BOL-303055-X 1 nM),"Inhibition of VEGF-induced HREC proliferation, agent alone [1, 4]","Combination effect with Avastin on VEGF-induced HREC proliferation (synergistic/additive) ([1]; BOL-303055-X 1 nM, Avastin 10 to 100 ng/ml)","IC50 ± SE of Avastin alone on inhibiting VEGF-induced proliferation of HREC ([2]; VEGF 10 ng/mL, estimated) [µg/mL]","Inhibition of VEGF-induced HREC proliferation, agent alone ([2]; echistatin 2 nM, Avastin 0.625-10 ng/ml (significant at 10 ng/ml), VEGF 10 ng/mL)","HREC proliferation under basal conditions ([2]; echistatin 2 nM, Avastin 0.625-10 ng/ml, no VEGF)","IC50 ± SE of Avastin plus BOL-303055-X on inhibiting VEGF-induced proliferation of HREC ([1]; VEGF 10 ng/ml, BOL-303055-X 1 nM, estimated) [µg/mL]",Intraocular inflammation and retinal vascular congestion [3]
CCc1nc(NC[C@H](NC(=O)OCc2ccccc2)C(=O)O)c(C)c(N2CCC(c3ccc4c(n3)NCCC4)CC2)n1 [BOL-303055-X],significantly inhibited,approximately 3.8 fold,reduced VEGF-induced proliferation in a statistically significant manner,synergistic effects,,,,,
"bevacizumab [Avastin, reference compound]",,,dose-dependent inhibition,,0.021,dose-dependent inhibition,no effect,0.016,no intraocular inflammation and retinal vascular congestion was recorded
